What was measured:
bamyardgrass = experiment: Test B flood test barnyardgrass; type: in vivo, Echinochloa crus-galli
Procedure: (§1) At the same time, these crop and weed species were also treated with postemergence applications of test chemicals formulated in the same manner. Plants ranged in height from 2 to 18 cm (1- to 4-leaf stage) for postemergence treatments. Plant species in the flood test consisted of rice (Oryza sativa), smallflower flatsedge (Cyperus difformis), duck salad (Heteranthera limosa) and bamyardgrass (Echinochloa crus-galli) grown to the 2-leaf stage for testing. Treated plants and controls were maintained in a greenhouse for twelve to sixteen days, after which all species were compared to controls and visually evaluated. Plant response ratings, summarized in Table B, are based on a scale of 0 to 10 where 0 is no effect and 10 is complete control. A dash (−) response means no test result.

pigweed = experiment: Test B pre/postemergence pigweed; type: in vivo, Amaranthus retroflexus; conditions: for Redroot pigweed plant response rating: scale of 0 to 10 where 0 is no effect and 10 is complete control
Procedure, shortened: (§2)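 Herbicidal effect was estimated by eye on a ten-point control scale after plants spent twelve to sixteen days in a greenhouse following soil or foliar treatment. Foliar sprays targeted plants at one to four leaves; all doses were formulated in a non-phytotoxic solvent with surfactant.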

rape = experiment: Test B pre/postemergence rape; type: in vivo, Brassica napus; conditions: for Rape plant response rating: scale of 0 to 10 where 0 is no effect and 10 is complete control
Procedure, shortened: as §2

corn = experiment: Test B pre/postemergence corn; type: in vivo, Zea mays; conditions: for Corn plant response rating: scale of 0 to 10 where 0 is no effect and 10 is complete control
Procedure, shortened: as §2

sugar beet = experiment: Test B pre/postemergence sugar beet; type: in vivo, Beta vulgaris; conditions: for Sugarbeets plant response rating: scale of 0 to 10 where 0 is no effect and 10 is complete control
Procedure, shortened: as §2

morningglory = experiment: Test B pre/postemergence morningglory; type: in vivo, Ipomoea hederacea; conditions: for Morningglory plant response rating: scale of 0 to 10 where 0 is no effect and 10 is complete control
Procedure, shortened: as §2

soybean = experiment: Test B pre/postemergence soybean; type: in vivo, Glycine max; conditions: for Soybean plant response rating: scale of 0 to 10 where 0 is no effect and 10 is complete control
Procedure, shortened: as §2

wild oat = experiment: Test B pre/postemergence wild oat; type: in vivo, Avena fatua; conditions: for Wild oats plant response rating: scale of 0 to 10 where 0 is no effect and 10 is complete control
Procedure, shortened: as §2

wheat = experiment: Test B pre/postemergence wheat; type: in vivo, Triticum aestivum; conditions: for Wheat plant response rating: scale of 0 to 10 where 0 is no effect and 10 is complete control
Procedure, shortened: as §2

duck salad = experiment: Test B flood test duck salad; type: in vivo, Heteranthera limosa; conditions: flood test species, visual evaluation after twelve to sixteen days
Procedure: as §1

[1] = Postemergence, Rate 250 g/ha, scale 0 to 10, 0 is no effect, 10 is complete control
[2] = Preemergence, Rate 62 g/ha, scale 0 to 10 (0 no effect, 10 complete control)

CCCCCCn1c(=O)on(C(=O)N(c2ccc(F)cc2)C(C)C)c1=O [Compound 389]
Plant response rating, Barnyardgrass (0 to 10 scale, 0 is no effect, 10 is complete control) (bamyardgrass; Rate 62 g/ha, flood test species, Pre-emergence, visual evaluation after twelve to sixteen days): 0 | Barnyardgrass plant response rating (0 to 10 scale, 0 is no effect, 10 is complete control) (bamyardgrass; Rate 125 g/ha, under heading Pre-emergence, flood test species, visual evaluation after twelve to sixteen days): 0 | Barnyardgrass plant response rating (bamyardgrass; Rate 250 g/ha, Pre-emergence, flood-test species, scale 0 to 10, 0 is no effect, 10 is complete control): 0 | Barnyardgrass plant response rating (bamyardgrass; Rate 500 g/ha, Pre-emergence, flood test species, scale 0 to 10 (0 no effect, 10 complete control)): 0 | Plant response rating, Redroot pigweed (pigweed; [1]): 0 | Redroot pigweed plant response rating (pigweed; Postemergence, Rate 500 g/ha): 7 | Plant response rating, Redroot pigweed (pigweed; [2]): 0 | Redroot pigweed plant response rating (0 to 10 scale) (pigweed; Preemergence, Rate 125 g/ha): 0 | Redroot pigweed plant response rating (pigweed; Preemergence, Rate 250 g/ha): 4 | Redroot pigweed plant response rating (pigweed; Preemergence, Rate 500 g/ha): 10 | Redroot pigweed plant response rating (pigweed; Rate 62 g/ha, Postemergence): 0 | Plant response rating, Rape (rape; [1]): 2 | Rape plant response rating (rape; Postemergence, Rate 500 g/ha): 4 | Plant response rating, Rape (rape; [2]): 0 | Rape plant response rating (0 to 10 scale) (rape; Preemergence, Rate 125 g/ha): 0 | Rape plant response rating (rape; Preemergence, Rate 250 g/ha): 0 | Rape plant response rating (rape; Preemergence, Rate 500 g/ha): 8 | Plant response rating, Corn (corn; Postemergence, Rate 125 g/ha, scale 0 to 10, 0 is no effect, 10 is complete control): 0 | Plant response rating, Corn (corn; [1]): 0 | Corn plant response rating (corn; Postemergence, Rate 500 g/ha): 0 | Plant response rating, Corn (corn; [2]): 0 | Corn plant response rating (0 to 10 scale) (corn; Preemergence, Rate 125 g/ha): 0 | Corn plant response rating (corn; Preemergence, Rate 250 g/ha): 0 | Corn plant response rating (corn; Preemergence, Rate 500 g/ha): 4 | Corn plant response rating (corn; Rate 62 g/ha, Postemergence): 0 | Plant response rating, Sugarbeets (sugar beet; [1]): 0 | Sugarbeets plant response rating (sugar beet; Postemergence, Rate 500 g/ha): 0 | Plant response rating, Sugarbeets (sugar beet; [2]): 0 | Sugarbeets plant response rating (0 to 10 scale) (sugar beet; Preemergence, Rate 125 g/ha): 0 | Sugarbeets plant response rating (sugar beet; Preemergence, Rate 250 g/ha): 0 | Sugarbeets plant response rating (sugar beet; Preemergence, Rate 500 g/ha): 4 | Sugarbeets plant response rating (sugar beet; Rate 62 g/ha, Postemergence): 0 | Plant response rating, Morningglory (morningglory; [1]): 8 | Morningglory plant response rating (morningglory; Postemergence, Rate 500 g/ha): 10 | Plant response rating, Morningglory (morningglory; [2]): 0 | Morningglory plant response rating (0 to 10 scale) (morningglory; Preemergence, Rate 125 g/ha): 0 | Morningglory plant response rating (morningglory; Preemergence, Rate 250 g/ha): 0 | Morningglory plant response rating (morningglory; Preemergence, Rate 500 g/ha): 1 | Morningglory plant response rating (morningglory; Rate 62 g/ha, Postemergence): 2 | Plant response rating, Soybean (soybean; [1]): 2 | Soybean plant response rating (soybean; Postemergence, Rate 500 g/ha): 3 | Plant response rating, Soybean (soybean; [2]): 0 | Soybean plant response rating (0 to 10 scale) (soybean; Preemergence, Rate 125 g/ha): 0 | Soybean plant response rating (soybean; Preemergence, Rate 250 g/ha): 0 | Soybean plant response rating (soybean; Preemergence, Rate 500 g/ha): 3 | Soybean plant response rating (soybean; Rate 62 g/ha, Postemergence): 2 | Plant response rating, Wild oats (wild oat; [1]): 0 | Wild oats plant response rating (wild oat; Postemergence, Rate 500 g/ha): 0 | Plant response rating, Wild oats (wild oat; [2]): 0 | Wild oats plant response rating (0 to 10 scale) (wild oat; Preemergence, Rate 125 g/ha): 0 | Wild oats plant response rating (wild oat; Preemergence, Rate 250 g/ha): 1 | Wild oats plant response rating (wild oat; Preemergence, Rate 500 g/ha): 4 | Wild oats plant response rating (wild oat; Rate 62 g/ha, Postemergence): 0 | Plant response rating, Wheat (wheat; [1]): 0 | Wheat plant response rating (wheat; Postemergence, Rate 500 g/ha): 0 | Plant response rating, Wheat (wheat; [2]): 0 | Wheat plant response rating (0 to 10 scale) (wheat; Preemergence, Rate 125 g/ha): 0 | Wheat plant response rating (wheat; Preemergence, Rate 250 g/ha): 0 | Wheat plant response rating (wheat; Preemergence, Rate 500 g/ha): 0 | Wheat plant response rating (wheat; Rate 62 g/ha, Postemergence): 0 | Plant response rating, Ducksalad (0 to 10 scale, 0 is no effect, 10 is complete control) (duck salad; Rate 62 g/ha, Pre-emergence): 0 | Ducksalad plant response rating (0 to 10 scale, 0 is no effect, 10 is complete control) (duck salad; Rate 125 g/ha, under heading Pre-emergence): 0
